Where a name gives a salt, the structure may show the parent alone.

These results are taken from patent publication US4678780A, “Anti-spasmodic agents having a ring in the main chain” (United Pharmaceuticals, Inc., priority 1986, dated 1987).

The test system of data set [1] is muscarinic receptors. It counts as binding, rabbit (New Zealand White). The following applies: at a concentration of 1.0 × 10^-5 M; 0.1 nM [3H]QNB; 37° C., 60 min; pH 7.4.
Data set [2] concerns gastrointestinal tract, biliary tract, ureter and uterus. The conditions noted are these: in vivo; cited from earlier work.
The conditions of data set [3]: in vivo; cited from earlier work.

As to `CCN(CC)CCSC(=O)c1ccc(C(C)(C)C)cc1` [4-t-butyl-benzoyl-thio-S-(2-diethylaminoethyl)-ester.HCl], the “% inhibition of ^3 H[QNB] binding” value in data set [1] turned out to be 21%.
For `CCN(CC)CCSC(=O)C(c1ccccc1)c1ccccc1` [Thiphenamil hydrochloride], the decrease spasm entry in data set [2] is “decrease spasm of the gastrointestinal tract, biliary tract, ureter and uterus”. Also, the atropinic side effects entry in data set [3] was “without producing characteristic atropinic side effects on salivary and sweat glands, GI glands, the eye or the cardiovascular system”.
